Molecular target: T1, H3 receptors (Cavia porcellus, UniProt Q9JI35)
T1 construct: The source of the H3 receptors in this experiment was guinea pig brain; from tissue; host or cells: guinea pig brain membranes
Experiment: H3-Receptor Binding Assay (guinea pig brain membranes)
Conditions: 3 nM [3H]R-α-methyl histamine or 3 nM [3H]Nα-methyl histamine, 30° C., 30 min
Experimental: The source of the H3 receptors in this experiment was guinea pig brain. The animals weighed 400–600 g. The brain tissue was homogenized with a solution of 50 mM Tris, pH 7.5. The final concentration of tissue in the homogenization buffer was 10% w/v. […] The resulting supernatants were then centrifuged at 50,000×g for 20 min. in order to sediment the membranes, which were next washed three times in homogenization buffer (50,000×g for 20 min. each). The membranes were frozen and stored at −70° C. until needed.
All compounds to be tested were dissolved in DMSO and then diluted into the binding buffer (50 mM Tris, pH 7.5) such that the final concentration was 2 μg/ml with 0.1% DMSO. Membranes were then added (400 μg of protein) to the reaction tubes. The reaction was started by the addition of 3 nM [^3H]R-α-methyl histamine (8.8 Ci/mmol) or 3 nM [^3H]N^α-methyl histamine (80 Ci/mmol) and continued under incubation at 30° C. for 30 min. Bound ligand was separated from unbound ligand by filtration, and the amount of radioactive ligand bound to the membranes was quantitated by liquid scintillation spectrometry.

T1 sequence (Q9JI35 whole entry): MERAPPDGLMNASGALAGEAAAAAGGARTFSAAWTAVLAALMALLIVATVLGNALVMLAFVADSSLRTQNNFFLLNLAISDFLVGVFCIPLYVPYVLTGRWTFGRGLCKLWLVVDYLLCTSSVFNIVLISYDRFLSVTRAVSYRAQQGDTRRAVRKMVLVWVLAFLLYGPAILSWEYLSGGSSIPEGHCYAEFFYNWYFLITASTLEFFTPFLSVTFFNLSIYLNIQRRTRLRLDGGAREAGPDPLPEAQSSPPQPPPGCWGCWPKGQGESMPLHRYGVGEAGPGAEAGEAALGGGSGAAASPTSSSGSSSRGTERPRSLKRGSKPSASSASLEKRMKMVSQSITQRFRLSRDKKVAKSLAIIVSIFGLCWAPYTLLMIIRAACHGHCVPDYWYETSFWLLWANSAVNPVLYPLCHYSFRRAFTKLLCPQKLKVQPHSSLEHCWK

For O=C(C1CCN(Cc2ccncc2)CC1)N1CCC(n2c(=O)n(CCn3cccc3)c3ccccc32)CC1 [Example 1AL], the Ki was 0.2 nM.
